Values quoted from earlier work in patent US20090312435A1, “SUBSTITUTED PHENETHYLAMINES WITH SEROTONINERGIC AND/OR NOREPINEPHRINERGIC ACTIVITY” (AUSPEX PHARMACEUTICALS, INC, priority 2006, published 2009).
Values joined by “and” are separate entries in the source; they are usually repeats but may differ in a detail not shown here. Equal entries are not always repeated. Where two headings read alike, the source gives them in different places.

| half-life (T1/2) (in humans) | half-life (T1/2) (human, in vivo) [h] | SMILES |
| --- | --- | --- |
| ~5 h and 3 to 7 h |  | COc1ccc(C(CN(C)C)C2(O)CCCCC2)cc1 (racemic) [venlafaxine] |
|  | ~11 | CN(C)CC(c1ccc(O)cc1)C1(O)CCCCC1 (centres unmarked) [O-desmethylvenlafaxine] |
